US20240294551A1 (AMGEN INC., priority 2022, published 2024)
Read-outs that look alike come from different tables or passages of the source.

How the values were obtained:
[1] = molecular target: His-tagged KRAS G12D protein (Homo sapiens (Human), UniProt P01116, G12D); assay: KRAS G12D TR-FRET Assay; type: binding
Method: Compounds of interest were prepared in a dose-response titration in DMSO, and 80 nL were added via Labcyte Echo to each well of a 384-well plate (Perkin Elmer 6008280). The His-tagged KRAS G12D protein (Amgen) was diluted to 20 nM in Assay Buffer (20 mM HEPES, pH 7.4, 10 mM MgCl2, 50 mM NaCl, 0.1% BSA, 0.01% Tween-20, 10 μM GDP) and 2 μL was added to the appropriate wells of the 384-well plate. The plate was incubated for 30 minutes at room temperature. Biotinylated KRPep-2d substrate (Amgen) was diluted to 20 nM in Assay Buffer and 2 μL was added to all wells and incubated for 1 hour at room temperature. Detection Reagent (0.4 nM LANCE Eu-W1024 Anti-6×His (Perkin Elmer AD0401), 5 nM streptavidin-d2 (Cisbio 610SADLA)) was prepared in Assay Buffer, then 4 μL was added to the plate and incubated for 1 hour at room temperature. Plates were read using PerkinElmer EnVision (ex: 320 nm, em1: 665 nm, em2: 615 nm) and em1/em2 data was used to generate curve fits using a 4-parameter logistic model to calculate IC50 values.

[2] = molecular target: GDP-bound KRAS protein (aa 1-169), containing both G12D and C118A amino acid substitutions (Homo sapiens (Human), UniProt P01116, C118A/G12D); assay: KRAS G12D Coupled Nucleotide Exchange Assay; type: biochemical
Chain of GDP-bound KRAS protein (aa 1-169), containing both G12D and C118A amino acid substitutions (P01116 other isoform, or with tags, fused parts or gaps G12D/C118A): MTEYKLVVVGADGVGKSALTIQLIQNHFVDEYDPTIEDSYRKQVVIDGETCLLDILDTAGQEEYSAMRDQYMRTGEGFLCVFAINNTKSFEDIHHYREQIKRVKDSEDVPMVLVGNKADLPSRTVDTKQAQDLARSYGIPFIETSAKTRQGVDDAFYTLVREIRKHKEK
Method: KRAS G12D Coupled Nucleotide Exchange Assay
Following compound pre-incubation, purified SOS protein (aa 564-1049) and GTP (Roche 10106399001) were added to the assay wells and incubated for an additional 30 min. To determine the extent of inhibition of SOS-mediated nucleotide exchange, purified GST-tagged cRAF (aa 1-149), nickel chelate AlphaLISA acceptor beads (PerkinElmer AL108R), and AlphaScreen glutathione donor beads (PerkinElmer 6765302) were added to the assay wells and incubated for 10 minutes. The assay plates were then read on a PerkinElmer EnVision Multilabel Reader, using AlphaScreen® technology, and data were analyzed using a 4-parameter logistic model to calculate IC50 values.

[3] = read-out: KRAS G12D Binding IC50
[4] = read-out: KRAS G12D Coupled Exchange IC50

Chain of His-tagged KRAS G12D protein (P01116 other isoform, or with tags, fused parts or gaps G12D): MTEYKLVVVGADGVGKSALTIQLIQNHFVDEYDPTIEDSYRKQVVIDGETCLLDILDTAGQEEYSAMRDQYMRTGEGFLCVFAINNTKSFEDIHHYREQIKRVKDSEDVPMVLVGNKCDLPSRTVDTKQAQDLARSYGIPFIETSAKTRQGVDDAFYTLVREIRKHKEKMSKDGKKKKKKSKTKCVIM

| SMILES | IC50 [1, 3] [nM] | IC50 [2, 4] [nM] | IC50 ([1]; TR-FRET, read-out: KRAS G12D Binding) [nM] | IC50 ([2]; 2 hours compound pre-incubation, read-out: KRAS G12D Coupled Exchange) [nM] |
| --- | --- | --- | --- | --- |
| O=C1CCCc2c(F)ccc3cccc(c23)-c2ncc3c(nc(OC[C@@]45CCCN4C[C@H](F)C5)nc3c2F)N2CC[C@@H]3CCN1[C@@H]3C2 [Example 71, (27R,31S)-18,33-Difluoro-4-(((2R,7aS)-2-fluorotetrahydro-1H-pyrrolo[1,2-a]pyrrol-7a(5H)-yl)methoxy)-1,3,5,9,24 pentaazaheptacyclo[22.5.2.1˜6,10˜.1˜11,15˜.0˜2,7˜.0˜19,32˜.0˜27,31˜]tritriaconta-2,4,6,8,10(33),11,13,15(32),16,18-decaen-23-one] | 306 | 119 |  |  |
| O=C1OCCCCc2c(Cl)cc3[nH]ncc3c2-c2ncc3c(nc(OC[C@@]45CCCN4C[C@H](F)C5)nc3c2F)N2CCOC[C@H](C2)O1 [Example 324, (27S)-18-chloro-33-fluoro-4-(((2R,7aS)-2-fluorotetrahydro-1H-pyrrolo[1,2-a]pyrrol-7a(5H)-yl)methoxy)-24,26,29-trioxa-1,3,5,9,14,15-hexaazahexacyclo[25.4.1.1~6,10~.0~2,7~.0~11,19~.0~12,16~]tritriaconta-2,4,6,8,10(33),11,13,16,18-nonaen-25-one] | 61 | 42 |  |  |
| O=C1N[C@@H]2CCCCN(C2)c2nc(OC[C@@]34CCCN3C[C@H](F)C4)nc3c(F)c(ncc23)-c2c3c(cc4[nH]ncc24)CC[C@@H]3CCO1 [Example 302, (16R,22R)-34-fluoro-8-(((2R,7aS)-2-fluorotetrahydro-1H-pyrrolo[1,2-a]pyrrol-7a(5H)-yl)methoxy)-19-oxa-3,7,9,11,17,28,29-heptaazaheptacyclo[20.9.1.1~2,6~.1~11,16~.0~5,10~.0~25,32~.0~27,31~]tetratriaconta-1(31),2(34),3,5,7,9,25(32),26,29-nonaen-18-one] | 1270 | 831 |  |  |
| O=C1CCCc2c(F)ccc3cccc(c23)-c2ncc3c(nc(OC[C@@]45CCCN4C[C@H](F)C5)nc3c2F)N2CCOC[C@H](C2)N1 [Example 70, (16S)-23,32-difluoro-8-(((2R,7aS)-2-fluorotetrahydro-1H-pyrrolo[1,2-a]pyrrol-7a(5H)-yl)methoxy)-14-oxa-3,7,9,11,17-pentaazahexacyclo[20.7.1.1~2,6~.1~11,16~.0~5,10~.0~26,30~]dotriaconta-1(29),2(32),3,5,7,9,22,24,26(30),27-decaen-18-one] | 277 | 274 |  |  |
| Cc1nc2c3cnc(c(F)c3n1)-c1c(c(C)cc3[nH]ncc13)[C@H]1C[C@H]1COC(=O)O[C@@H]1CCCN2C1 [Example 211, (11S,13R,18R)-31-fluoro-9,25-dimethyl-15,17-dioxa-5,6,22,24,26,30-hexaazaheptacyclo[25.3.1.1~18,22~.0~2,10~.0~3,7~.0~11,13~.0~23,28~]dotriaconta-1(31),2,4,7,9,23,25,27,29-nonaen-16-one] | 617 | 268 |  |  |
| Cc1cc2[nH]ncc2c2c1CCOC(=O)O[C@H]1C[C@@]3(CCCN(C3)c3nc(OC[C@@H]4CCCN4C)nc4c(F)c-2ncc34)C1 (single isomer, unassigned) [Example 325] | 99 | 65 |  |  |
| [O-][S+]1CCCCc2c(Cl)cc3[nH]ncc3c2-c2ncc3c(nc(OC[C@@]45CCCN4C[C@H](F)C5)nc3c2F)N2CCC[C@H](C2)C1 (mixture of isomers) [Example 144] | 146 | 79 |  |  |
| O=C1OCCc2c(Cl)cc3[nH]ncc3c2-c2ncc3c(nc(OC[C@@]45CCCN4C[C@H](F)C5)nc3c2F)N2CCOC[C@]3(C2)C[C@@H](C3)O1 [Example 317, (1S,3S)-10-chloro-33-fluoro-24-(((2R,7aS)-2-fluorotetrahydro-1H-pyrrolo[1,2-a]pyrrol-7a(5H)-yl)methoxy)-4,6,30-trioxa-13,14,19,23,25,27-hexaazaheptacyclo[25.4.1.1~1,3~.1~18,22~.0~9,17~.0~12,16~.0~21,26~]tetratriaconta-9,11,14,16,18(33),19,21,23,25-nonaen-5-one] | 50 | 35 |  |  |
| Cc1cc2[nH]ncc2c2c1CCCOC(=O)N[C@@]1(C)CCCCN(C1)c1nc(OC[C@@]34CCCN3C[C@H](F)C4)nc3c(F)c-2ncc13 [Example 293, (26S)-32-fluoro-4-(((2R,7aS)-2-fluorotetrahydro-1H-pyrrolo[1,2-a]pyrrol-7a(5H)-yl)methoxy)-18,26-dimethyl-23-oxa-1,3,5,9,14,15,25-heptaazahexacyclo[24.4.1.1~6,10~.0~2,7~.0~11,19~.0~12,16~]dotriaconta-2,4,6(32),7,9,11,13,16,18-nonaen-24-one] | 50000 | 16400 |  |  |
| Fc1c2ncc3c(nc(OC[C@@]45CCCN4C[C@H](F)C5)nc13)N1CCC[C@@H](C1)c1cnc(o1)CCCc1c(Cl)cc3[nH]ncc3c1-2 [Example 386, (18S)-9-chloro-31-fluoro-25-(((2R,7aS)-2-fluorotetrahydro-1H-pyrrolo[1,2-a]pyrrol-7a(5H)-yl)methoxy)-33-oxa-5,6,15,22,24,26,30-heptaazaheptacyclo[25.3.1.1~14,17~.1~18,22~.0~2,10~.0~3,7~.0~23,28~]tritriaconta-1(31),2,4,7,9,14,16,23,25,27,29-undecaene] |  |  | 3730 | 1810 |
| Cc1cc2[nH]ncc2c2c1CCC(=O)OCCC1CCCN(C1)c1nc(OC[C@@]34CCCN3C[C@H](F)C4)nc3c(F)c-2ncc13 (mixture of isomers) [Example 107] | 70 | 42 |  |  |
| O=C1CCCc2cccc3cccc(c23)-c2ncc3c(nc(OC[C@@]45CCCN4C[C@H](F)C5)nc3c2F)N2CCC[C@H](C2)O1 [Example 29, (15R)-31-Fluoro-8-(((2R,7aS)-2-fluorotetrahydro-1H-pyrrolo[1,2-a]pyrrol-7a(5H)-yl)methoxy)-16-oxa-3,7,9,11-tetraazahexacyclo[19.7.1.1˜2,6˜.1˜11,15˜.0˜5,10˜.0˜25,29˜]hentriaconta-1(28),2(31),3,5,7,9,21,23,25(29),26-decaen-17-one bis(2,2,2-trifluoroacetate)] | 443 | 513 |  |  |
| O=C1CCCc2c(F)ccc3cccc(c23)-c2ncc3c(nc(OC[C@@]45CCCN4C[C@H](F)C5)nc3c2F)N2CCOC[C@H](C2)O1 [Example 109] | 180 | 196 |  |  |
| CN(C)CC1(COc2nc3c4cc(F)c(c(F)c4n2)-c2c(c(Cl)cc4[nH]ncc24)CCCOC(=O)O[C@@H]2COCCN3C2)CC1 [Example 306, m-(26S)-18-chloro-4-((1-((dimethylamino)methyl)cyclopropyl)methoxy)-9,32-difluoro-23,25,28-trioxa-1,3,5,14,15-pentaazahexacyclo[24.4.1.1~6,10~.0~2,7~.0~11,19~.0~12,16~]dotriaconta-2,4,6,8,10(32),11,13,16,18-nonaen-24-one] | 695 | 450 |  |  |
| N#Cc1cc(Cl)c2c(c1)-c1ncc3c(nc(OC[C@@]45CCCN4C[C@H](F)C5)nc3c1F)N1CCOC[C@H](C1)OC(=O)OCCC2 [Example 216] | 74 | 55 |  |  |
| Cc1nc2c3cnc(c(F)c3n1)-c1cc(O)cc3ccc(F)c(c13)CCCC(=O)N[C@]1(C)CCCN2C1.O=C(O)C(F)(F)F [Example 14, (15R)-22,31-Difluoro-27-hydroxy-8,15-dimethyl-3,7,9,11,16-pentaazahexacyclo[19.7.1.1˜2,6˜.1˜11,15˜.0˜5,10˜.0˜25,29˜]hentriaconta-1(28),2(31),3,5,7,9,21,23,25(29),26-decaen-17-one 2,2,2-trifluoroacetate] | 344 | 296 |  |  |
| Cc1cc2[nH]ncc2c2c1CCCCC(=O)OC1CC[C@@H]3CC[C@H]1N3c1nc(OC[C@@]34CCCN3C[C@H](F)C4)nc3c(F)c-2ncc13 (racemic) [Example 86] | 61 | 57 |  |  |
| O=C1CCCCc2c(Cl)cc3[nH]ncc3c2-c2ncc3c(nc(OC[C@@]45CCCN4C[C@H](F)C5)nc3c2F)N2C[C@H](O)C[C@@H](C2)N1 (racemic) [Example 276, (17S,19R)-9-chloro-30-fluoro-24-(((2R,7aS)-2-fluorotetrahydro-1H-pyrrolo[1,2-a]pyrrol-7a(5H)-yl)methoxy)-19-hydroxy-5,6,16,21,23,25,29-heptaazahexacyclo[24.3.1.1~17,21~.0~2,10~.0~3,7~.0~22,27~]hentriaconta-1(30),2,4,7,9,22,24,26,28-nonaen-15-one] | 498 | 153 |  |  |
